Test results published in patent publication US20240158446A1, “CYCLIC COMPOUND HAVING SELECTIVE INHIBITORY ACTION ON KRAS OVER HRAS AND NRAS” (CHUGAI SEIYAKU KABUSHIKI KAISHA, priority 2021, published 2024).

Legend:
[1] = molecular target: GDP-bound KRAS wild-type protein (Homo sapiens, UniProt P01116); experiment: Binding to KRAS by surface plasmon resonance (SPR), Single Cycle Kinetics; conditions: SPR, Single Cycle Kinetics, GDP-bound KRAS wild-type protein; read-out: KRAS KD
[2] = tested on: human lung cancer strain NCI-H441; experiment: cells; conditions: NCI-H441, 96 h, read-out: NCI-H441 IC50 (nM), NCI-H441 cell proliferation, 4 days, CellTiter-Glo;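 also: cell proliferation inhibition after four days measured by CellTiter-Glo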
[3] = molecular target: GDP-bound HRAS wild-type protein (Homo sapiens, UniProt P01112); experiment: Binding to HRAS by surface plasmon resonance (SPR), Single Cycle Kinetics; conditions: ratio of KD for GDP-bound HRAS wild-type protein to KD for KRAS, SPR
[4] = molecular target: GDP-bound NRAS wild-type protein (Homo sapiens, UniProt P01111); experiment: Binding to NRAS by surface plasmon resonance (SPR), Single Cycle Kinetics; conditions: ratio of KD for GDP-bound NRAS wild-type protein to KD for KRAS, SPR
GDP-bound NRAS wild-type protein, sequence (P01111 whole entry): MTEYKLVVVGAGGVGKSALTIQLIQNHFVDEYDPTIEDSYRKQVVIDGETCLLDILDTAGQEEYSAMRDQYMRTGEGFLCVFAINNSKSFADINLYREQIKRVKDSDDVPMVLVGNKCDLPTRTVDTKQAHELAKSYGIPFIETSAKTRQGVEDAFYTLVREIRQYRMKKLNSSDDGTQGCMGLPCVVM

GDP-bound HRAS wild-type protein, sequence (P01112 whole entry): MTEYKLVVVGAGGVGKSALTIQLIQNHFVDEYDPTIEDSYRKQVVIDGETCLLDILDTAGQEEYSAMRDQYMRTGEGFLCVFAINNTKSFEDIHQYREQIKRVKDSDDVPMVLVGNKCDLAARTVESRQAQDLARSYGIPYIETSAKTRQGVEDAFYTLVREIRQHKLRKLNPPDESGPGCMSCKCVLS
GDP-bound KRAS wild-type protein, sequence (P01116 whole entry): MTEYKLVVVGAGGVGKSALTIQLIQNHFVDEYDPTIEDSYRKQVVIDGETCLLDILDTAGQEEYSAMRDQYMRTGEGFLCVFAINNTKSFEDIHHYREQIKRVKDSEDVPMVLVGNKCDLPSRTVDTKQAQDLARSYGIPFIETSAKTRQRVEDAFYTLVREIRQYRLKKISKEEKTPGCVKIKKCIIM

| Structure (SMILES) | Kd [1] [nM] | IC50 [2] [nM] | HRAS/KRAS (KD ratio) [3] | NRAS/KRAS (KD ratio) [4] |
| --- | --- | --- | --- | --- |
| CCO[C@@H]1C[C@H]2C(=O)NC3(CC(F)(F)C3)C(=O)N(C)[C@@H](C3CCCC3)C(=O)N(C)[C@H](C(=O)N(C)C)CC(=O)N(C)[C@@H](CC(C)C)C(=O)N[C@@H]([C@@H](C)CC)C(=O)N(C)CC(=O)N(C)[C@H]3C/C=C\CCN(C3=O)[C@@H](Cc3ccc(C(F)(F)F)cc3)C(=O)N(C)CC(=O)N[C@@H](CCc3cc(F)c(C(F)(F)F)c(F)c3)C(=O)N2C1 [PP1741] | 0.039 | 2.3 | B (a compound having 3 or more and less than 10 is denoted as B) | A (a compound having 10 or more and less than 20 is denoted as A) |
| CCO[C@@H]1C[C@H]2C(=O)NC3(CC(F)(F)C3)C(=O)N(C)[C@@H](C3CCCC3)C(=O)N(C)[C@H](C(=O)N(C)C)CC(=O)N(C)[C@@H](CC3CCC3)C(=O)N[C@@H]([C@@H](C)CC)C(=O)N(C)CC(=O)N(C)[C@H]3C/C=C\CCN(C3=O)[C@@H](Cc3ccc(C(F)(F)F)cc3)C(=O)N(C)CC(=O)N[C@@H](CCc3cc(F)c(C(F)(F)F)c(F)c3)C(=O)N2C1 [PP1742] | 0.051 | 1.6 | A (a compound having 10 or more and less than 20 is denoted as A) | A (a compound having 10 or more and less than 20 is denoted as A) |
| CCCN(C)C(=O)[C@@H]1CC(=O)N(C)[C@@H](COC)C(=O)N[C@@H]([C@@H](C)CC)C(=O)N(C)CC(=O)N(C)[C@H]2C/C=C\CCN(C2=O)[C@@H](Cc2ccc(C(F)(F)F)cc2)C(=O)N(C)CC(=O)N[C@@H](CCc2cc(F)c(C(F)(F)F)c(F)c2)C(=O)N2C[C@H](OCC)C[C@H]2C(=O)NC2(CC(F)(F)C2)C(=O)N(C)[C@@H](C2CCCC2)C(=O)N1C [PP1743] | 0.076 | 5.1 | A (a compound having 10 or more and less than 20 is denoted as A) | AA (a compound having 20 or more is denoted as AA) |
| CCCOC[C@H]1C(=O)N[C@@H]([C@@H](C)CC)C(=O)N(C)CC(=O)N(C)[C@H]2C/C=C\CCN(C2=O)[C@@H](Cc2ccc(C(F)(F)F)cc2)C(=O)N(C)CC(=O)N[C@@H](CCc2cc(F)c(C(F)(F)F)c(F)c2)C(=O)N2C[C@H](OCC)C[C@H]2C(=O)NC2(CC(F)(F)C2)C(=O)N(C)[C@@H](C2CCCC2)C(=O)N(C)[C@H](C(=O)N(C)CCC)CC(=O)N1C [PP1744] | 0.13 | 5.3 | A (a compound having 10 or more and less than 20 is denoted as A) | A (a compound having 10 or more and less than 20 is denoted as A) |
| CCO[C@@H]1C[C@H]2C(=O)NC3(CC(C)(C)C3)C(=O)N(C)[C@@H](C3CCCC3)C(=O)N(C)[C@H](C(=O)N(C)C)CC(=O)N(C)[C@@H](CC)C(=O)N[C@@H]([C@@H](C)CC)C(=O)N(C)CC(=O)N(C)[C@H]3C/C=C\CCN(C3=O)[C@@H](Cc3ccc(C(F)(F)F)cc3)C(=O)N(C)CC(=O)N[C@@H](CCc3ccc(C(F)(F)F)c(Cl)c3)C(=O)N2C1 [PP1746] | 0.054 | 1.9 | A (a compound having 10 or more and less than 20 is denoted as A) | A (a compound having 10 or more and less than 20 is denoted as A) |
| CCO[C@@H]1C[C@H]2C(=O)NC3(CC(C)(C)C3)C(=O)N(C)[C@@H](C3CCCC3)C(=O)N(C)[C@H](C(=O)N(C)C)CC(=O)N(C)[C@@H](CC(F)F)C(=O)N[C@@H]([C@@H](C)CC)C(=O)N(C)CC(=O)N(C)[C@H]3C/C=C\CCN(C3=O)[C@@H](Cc3ccc(C(F)(F)F)cc3)C(=O)N(C)CC(=O)N[C@@H](CCc3ccc(C(F)(F)F)c(Cl)c3)C(=O)N2C1 [PP1747] | 0.058 | 2.3 | A (a compound having 10 or more and less than 20 is denoted as A) | A (a compound having 10 or more and less than 20 is denoted as A) |

Now from value to molecule, other results behind:

| Kd [1] [nM] | IC50 [2] [nM] | Structure (SMILES) | HRAS/KRAS (KD ratio) [3] | NRAS/KRAS (KD ratio) [4] |
| --- | --- | --- | --- | --- |
| 0.062 | 3.1 | CCC[C@H]1C(=O)N[C@@H]([C@@H](C)CC)C(=O)N(C)CC(=O)N(C)[C@H]2C/C=C\CCN(C2=O)[C@@H](Cc2ccc(C(F)(F)F)cc2)C(=O)N(C)CC(=O)N[C@@H](CCc2ccc(C(F)(F)F)c(Cl)c2)C(=O)N2C[C@H](OCC)C[C@H]2C(=O)NC2(CC(C)(C)C2)C(=O)N(C)[C@@H](C2CCCC2)C(=O)N(C)[C@H](C(=O)N(C)C)CC(=O)N1C [PP1748] | B (a compound having 3 or more and less than 10 is denoted as B) | A (a compound having 10 or more and less than 20 is denoted as A) |
| 0.039 | 3.3 | CCO[C@@H]1C[C@H]2C(=O)NC3(CC(C)(C)C3)C(=O)N(C)[C@@H](C3CCCC3)C(=O)N(C)[C@H](C(=O)N(C)C)CC(=O)N(C)[C@@H](CC3CC3)C(=O)N[C@@H]([C@@H](C)CC)C(=O)N(C)CC(=O)N(C)[C@H]3C/C=C\CCN(C3=O)[C@@H](Cc3ccc(C(F)(F)F)cc3)C(=O)N(C)CC(=O)N[C@@H](CCc3ccc(C(F)(F)F)c(Cl)c3)C(=O)N2C1 [PP1749] | A (a compound having 10 or more and less than 20 is denoted as A) | A (a compound having 10 or more and less than 20 is denoted as A) |
| 0.069 | 3.4 | CCCC[C@H]1C(=O)N[C@@H]([C@@H](C)CC)C(=O)N(C)CC(=O)N(C)[C@H]2C/C=C\CCN(C2=O)[C@@H](Cc2ccc(C(F)(F)F)cc2)C(=O)N(C)CC(=O)N[C@@H](CCc2ccc(C(F)(F)F)c(Cl)c2)C(=O)N2C[C@H](OCC)C[C@H]2C(=O)NC2(CC(C)(C)C2)C(=O)N(C)[C@@H](C2CCCC2)C(=O)N(C)[C@H](C(=O)N(C)C)CC(=O)N1C [PP1750] | B (a compound having 3 or more and less than 10 is denoted as B) | A (a compound having 10 or more and less than 20 is denoted as A) |
| 0.047 | 2.2 | CCO[C@@H]1C[C@H]2C(=O)NC3(CC(C)(C)C3)C(=O)N(C)[C@@H](C3CCCC3)C(=O)N(C)[C@H](C(=O)N(C)C)CC(=O)N(C)[C@@H](CC(C)C)C(=O)N[C@@H]([C@@H](C)CC)C(=O)N(C)CC(=O)N(C)[C@H]3C/C=C\CCN(C3=O)[C@@H](Cc3ccc(C(F)(F)F)cc3)C(=O)N(C)CC(=O)N[C@@H](CCc3ccc(C(F)(F)F)c(Cl)c3)C(=O)N2C1 [PP1751] | A (a compound having 10 or more and less than 20 is denoted as A) | A (a compound having 10 or more and less than 20 is denoted as A) |
| 0.085 | 5.8 | CCO[C@@H]1C[C@H]2C(=O)NC3(CC(C)(C)C3)C(=O)N(C)[C@@H](C3CCCC3)C(=O)N(C)[C@H](C(=O)N(C)C)CC(=O)N(C)[C@@H](CC3CCC3)C(=O)N[C@@H]([C@@H](C)CC)C(=O)N(C)CC(=O)N(C)[C@H]3C/C=C\CCN(C3=O)[C@@H](Cc3ccc(C(F)(F)F)cc3)C(=O)N(C)CC(=O)N[C@@H](CCc3ccc(C(F)(F)F)c(Cl)c3)C(=O)N2C1 [PP1752] | A (a compound having 10 or more and less than 20 is denoted as A) | A (a compound having 10 or more and less than 20 is denoted as A) |
| 0.038 | 5.9 | CCO[C@@H]1C[C@H]2C(=O)NC3(CC(C)(C)C3)C(=O)N(C)[C@@H](C3CCCC3)C(=O)N(C)[C@H](C(=O)N(C)C)CC(=O)N(C)[C@@H](COC)C(=O)N[C@@H]([C@@H](C)CC)C(=O)N(C)CC(=O)N(C)[C@H]3C/C=C\CCN(C3=O)[C@@H](Cc3ccc(C(F)(F)F)cc3)C(=O)N(C)CC(=O)N[C@@H](CCc3ccc(C(F)(F)F)c(Cl)c3)C(=O)N2C1 [PP1753] | A (a compound having 10 or more and less than 20 is denoted as A) | A (a compound having 10 or more and less than 20 is denoted as A) |
| 0.064 | 3 | CCCOC[C@H]1C(=O)N[C@@H]([C@@H](C)CC)C(=O)N(C)CC(=O)N(C)[C@H]2C/C=C\CCN(C2=O)[C@@H](Cc2ccc(C(F)(F)F)cc2)C(=O)N(C)CC(=O)N[C@@H](CCc2ccc(C(F)(F)F)c(Cl)c2)C(=O)N2C[C@H](OCC)C[C@H]2C(=O)NC2(CC(C)(C)C2)C(=O)N(C)[C@@H](C2CCCC2)C(=O)N(C)[C@H](C(=O)N(C)C)CC(=O)N1C [PP1754] | A (a compound having 10 or more and less than 20 is denoted as A) | A (a compound having 10 or more and less than 20 is denoted as A) |
| 0.31 | 7.1 | CCCN(C)C(=O)[C@@H]1CC(=O)N(C)[C@@H](CC(F)F)C(=O)N[C@@H]([C@@H](C)CC)C(=O)N(C)CC(=O)N(C)[C@H]2C/C=C\CCN(C2=O)[C@@H](Cc2ccc(C(F)(F)F)cc2)C(=O)N(C)CC(=O)N[C@@H](CCc2cc(F)c(Cl)c(F)c2)C(=O)N2C[C@H](OCC)C[C@H]2C(=O)NC2(CC(C)(C)C2)C(=O)N(C)[C@@H](C2CCCC2)C(=O)N1C [PP1757] | A (a compound having 10 or more and less than 20 is denoted as A) | AA (a compound having 20 or more is denoted as AA) |
| 0.19 | 6 | CCC[C@H]1C(=O)N[C@@H]([C@@H](C)CC)C(=O)N(C)CC(=O)N(C)[C@H]2C/C=C\CCN(C2=O)[C@@H](Cc2ccc(C(F)(F)F)cc2)C(=O)N(C)CC(=O)N[C@@H](CCc2cc(F)c(Cl)c(F)c2)C(=O)N2C[C@H](OCC)C[C@H]2C(=O)NC2(CC(C)(C)C2)C(=O)N(C)[C@@H](C2CCCC2)C(=O)N(C)[C@H](C(=O)N(C)C)CC(=O)N1C [PP1758] | A (a compound having 10 or more and less than 20 is denoted as A) | AA (a compound having 20 or more is denoted as AA) |
